Assay results from US20050010048A1 (published 2005).
Counter-ions that a name gives are not always drawn.

SMILES | melting point [°C]
Cc1cc(C(=O)c2cccc(Cc3ccccc3)c2)c(O)c2ncccc12 | 123 to 124
O=C(c1cc(Cc2ccccc2)cc(Cn2ccnc2)c1)c1cc(Cl)c2cccnc2c1O (as salt: TFA) | 148 to 150
